Assay results published in ChEMBL document CHEMBL1138166, “Synthesis and antimycobacterial activity of some alkyl [5-(nitroaryl)-1,3,4-thiadiazol-2-ylthio]propionates” (2006).
In brackets after ≈: the same amount, converted by molar mass. Activity calls are given as the source filed them. The rule behind the calls is not given here.

Tested on: Mycobacterium tuberculosis
Assay: Antimycobacterial activity against Mycobacterium tuberculosis H37Rv by microplate alamar blue assay
Assay type: functional
Details: for MIC: Mycobacterium tuberculosis, H37Rv

CCCCOC(=O)CCSc1nnc(-c2ccc([N+](=O)[O-])s2)s1
Activity: Active
Inhibition: 98%
MIC: 6.25 µg/mL (≈ 16.7 µM)

COC(=O)CCSc1nnc(-c2ccc([N+](=O)[O-])s2)s1
Activity: inactive
Inhibition: 76%
MIC: > 6.25 µg/mL

CCCOC(=O)CCSc1nnc(-c2ccc([N+](=O)[O-])s2)s1
Activity: Active
Inhibition: 98%
MIC: 1.56 µg/mL (≈ 4.34 µM)

CCOC(=O)C(C)[S+]([O-])c1nnc(-c2ccc([N+](=O)[O-])s2)s1 (stereo not drawn)
Activity: inactive
Inhibition: 12%
MIC: > 6.25 µg/mL

CCOC(=O)C(C)[S+]([O-])c1nnc(-c2ncc([N+](=O)[O-])n2C)s1 (stereo not drawn)
Activity: inactive
Inhibition: 11%
MIC: > 6.25 µg/mL

CCOC(=O)C(C)Sc1nnc(-c2ccc([N+](=O)[O-])s2)s1 (stereo not drawn)
Activity: Active
Inhibition: 92%
MIC: 6.25 µg/mL (≈ 18.1 µM)

CCOC(=O)CCSc1nnc(-c2ccc([N+](=O)[O-])s2)s1
Activity: inactive
Inhibition: 26%
MIC: > 6.25 µg/mL

CO[C@H]1/C=C/O[C@@]2(C)Oc3c(C)c(O)c4c(O)c(c(/C=N/N5CCN(C)CC5)c(O)c4c3C2=O)NC(=O)/C(C)=C\C=C\[C@H](C)[C@H](O)[C@@H](C)[C@@H](O)[C@@H](C)[C@H](OC(C)=O)[C@@H]1C [RIFAMPIN]
MIC: 0.5 µg/mL (≈ 0.608 µM)

CCCOC(=O)CCSc1nnc(-c2ccc([N+](=O)[O-])o2)s1
Activity: inactive
Inhibition: 0%
MIC: > 6.25 µg/mL

CCCCOC(=O)CCSc1nnc(-c2ccc([N+](=O)[O-])o2)s1
Activity: inactive
Inhibition: 0%
MIC: > 6.25 µg/mL

CCOC(=O)C(C)[S+]([O-])c1nnc(-c2ccc([N+](=O)[O-])o2)s1 (stereo not drawn)
Activity: inactive
Inhibition: 6%
MIC: > 6.25 µg/mL

CCOC(=O)C(C)S(=O)(=O)c1nnc(-c2ncc([N+](=O)[O-])n2C)s1 (stereo not drawn)
Activity: Active
Inhibition: 100%
MIC: 3.12 µg/mL (≈ 8.31 µM)

CCOC(=O)C(C)S(=O)(=O)c1nnc(-c2ccc([N+](=O)[O-])o2)s1 (stereo not drawn)
Activity: inactive
Inhibition: 78%
MIC: > 6.25 µg/mL

O=C(O)CCSc1nnc(-c2ccc([N+](=O)[O-])o2)s1
Activity: Active
Inhibition: 95%
MIC: 6.25 µg/mL (≈ 20.7 µM)

CCOC(=O)C(C)S(=O)(=O)c1nnc(-c2ccc([N+](=O)[O-])s2)s1 (stereo not drawn)
Activity: inactive
Inhibition: 82%
MIC: > 6.25 µg/mL

CCOC(=O)C(C)Sc1nnc(-c2ccc([N+](=O)[O-])o2)s1 (stereo not drawn)
Activity: Active
Inhibition: 98%
MIC: 6.25 µg/mL (≈ 19 µM)

COC(=O)CCSc1nnc(-c2ccc([N+](=O)[O-])o2)s1
Activity: inactive
Inhibition: 64%
MIC: > 6.25 µg/mL

CCOC(=O)CCSc1nnc(-c2ccc([N+](=O)[O-])o2)s1
Activity: inactive
Inhibition: 14%
MIC: > 6.25 µg/mL

O=C(O)CCSc1nnc(-c2ccc([N+](=O)[O-])s2)s1
Activity: inactive
Inhibition: 0%
MIC: > 6.25 µg/mL

CCOC(=O)C(C)Sc1nnc(-c2ncc([N+](=O)[O-])n2C)s1 (stereo not drawn)
Activity: Active
Inhibition: 90%
MIC: 6.25 µg/mL (≈ 18.2 µM)
